Here are results for 25 compounds from PubChem BioAssay (NCI).

“And” between values parts separate entries of the source, which are not always exact repeats. Equal values may be shown once.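 In this assay, cells in 96-well plates receive the compound at five concentrations for 48 hours. Endpoints are linearly interpolated between the surrounding concentrations. Abbreviation: GI50, concentration required for 50% inhibition of growth. TGI: concentration producing complete growth inhibition.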

What all share (assay): NCI anticancer screen, dose series, 48 h
For test [1], the system named is DLD-1 colon.
Test [2] has as its system DMS 114 small cell lung.
Test [3] deals with HOP-18 NSCLC.
The subject of test [4] is KM20L2 colon.
Test [5] deals with LXFL 529 NSCLC.
Test [6] concerns XF 498 CNS.
Test [7] has as its system DU-145 prostate.
The test system of test [8] is HS 578T breast.
In test [9] the test system is MDA-MB-231 breast.
Test [10] has as its system NCI/ADR-RES ovarian.

For `Cn1c(=O)c(C(c2ccc([N+](=O)[O-])cc2)c2c(O)c3ccccc3n(C)c2=O)cc2ccccc21` (stereo not given), the TGI in test [1], in test [2], in [3], in test [4], in [5] and in test [6] was above 100 µM in each case.
As for `C1=CC2SSSC2C1` (stereo not given), the TGI in [1], in test [2], in test [3], in [4], in test [5] and in test [6] was above 100 µM throughout.
With `COc1ccccc1CCc1cc(OC)c(OC)c(OC)c1`, the TGI was above 100 µM in test [1]; above 100 µM in test [2]; above 100 µM in test [3]; above 100 µM in test [4]; above 100 µM in [5]; 84.8 µM in [6].
For `O=C1OC(c2ccccc2)=N/C1=C\c1cccc2ccccc12`, the TGI in test [1], in test [2], in test [3], in test [5] and in [6] was above 100 µM in each case.
Consider `CC(=O)/C(C)=N/NC(=O)c1ccccc1O`, for which the TGI in test [1] was above 10 µM; in test [2], above 10 µM; in test [7], above 100 µM; in test [3], above 10 µM; in test [8] it was above 100 µM; in test [4] it was above 10 µM. Moreover, the TGI in test [5] was above 10 µM; in test [9], above 100 µM; in test [10], above 100 µM; in test [6], above 10 µM.
For `COc1ccc(C(=O)C(C(=O)CCC(=O)Nc2cccc(Cl)c2)c2ccc(OC)cc2)cc1` (stereo not given), the TGI in [1], in [3], in test [4], in [5] and in test [6] was above 100 µM each time.
Take `O=C1C2C3C=C4c5ccccc5N(c5ccccc5)C4(C2C(=O)N1Cc1ccccc1)C1C(=O)N(Cc2ccccc2)C(=O)C31` (stereo not given): the TGI in test [1], in test [2], in [3], in test [4], in test [5] and in test [6] was above 100 µM throughout.
In the case of `COc1cccc2c1C(=O)c1c(O)c3c(c(O)c1C2=O)C[C@@](O)(C(C)=O)C[C@@H]3OC1OC(C)C(O)C(N)C1Br` (stereo not given in full), the GI50 is 0.0679 µM in test [1], 0.0233 µM in test [2] and 0.0766 µM in test [6]. The TGI in test [1] is 0.175 µM and 0.607 µM; in test [2], 0.428 µM and 0.212 µM; in test [7], 2.67 µM; in [3] it was 0.345 µM; in test [4] it was 1.17 µM; in test [5] it was 1.12 µM. Moreover, the TGI in test [9] is 1.72 µM; in [6] it was 0.414 µM and 0.423 µM.
For the compound `COc1cc2c(c(OC)c1OC)-c1ccc(OC)c(=O)cc1[C@@H](NC(=O)c1ccccc1)CC2`, the TGI in test [1] is above 100 µM; in [2] it was below 0.016 µM; in test [7] it was 0.0329 µM and 0.237 µM; in test [3], above 100 µM; in test [5] it was above 100 µM; in [9], 15.7 µM. Further, the TGI in test [10] is 1.15 µM and 1.05 µM; in test [6] it was 3.86 µM. In addition, the GI50 in [7] and in [8] was below 0.003 µM each time.
Turning to `Cc1nc(N)sc1C(=O)/C=C\c1ccc2c(c1)OCO2`, the TGI in [1], in test [2], in test [3], in test [4], in [5] and in [6] was above 100 µM each time.
Turning to `CCOC(=O)C1=C(C)N(NC(=O)Nc2ccccc2)C(=O)C1=P(c1ccccc1)(c1ccccc1)c1ccccc1`, the TGI is above 100 µM in test [1]; above 100 µM in [2]; above 100 µM in test [3]; above 100 µM in [4]; above 100 µM in test [5]; 95.3 µM in test [6].
Take `NCCCCN(CCCN)/[N+]([O-])=N\O`: the TGI in test [1], in [2], in test [3], in test [4] and in test [5] was above 100 µM in each case.
Consider `COC(=O)C1=C(C)N(NC(=O)OC(C)(C)C)C(=O)C1=P(c1ccccc1)(c1ccccc1)c1ccccc1`, for which the TGI in test [1], in [2], in test [3], in test [4], in test [5] and in test [6] was above 100 µM each time.
On to `CC(C)(C)c1ccc2c(c1)S(=O)(=O)Nc1ccccc1NS(=O)(=O)c1cc(C(C)(C)C)ccc1OCCOCCOCCO2`, for which the TGI in test [1], in [2] and in test [3] was above 100 µM in each case.
Consider `CCOC(=O)CC1(C(=O)OCC)c2[nH]c3ccccc3c2CCN1Cc1ccccc1` (stereo not given), for which the TGI in [1] is 89.4 µM; in test [2] it was 38.6 µM; in test [3] it was 54.4 µM; in test [4], 32.5 µM; in [5], above 100 µM; in test [6], 41.4 µM.
Regarding `CC1(C)C(=O)N(CCCCCCN2C(=O)C(C)(C)c3ccccc32)c2ccccc21`, the TGI is 43.4 µM in test [2]; above 100 µM in test [3]; above 100 µM in test [4]; above 100 µM in test [5]; 53.6 µM in test [6].
In the case of `Cc1cn(C2CC(O)C(CO)O2)c(=O)n2nnnc12` (stereo not given), the TGI in test [1], in [2], in test [3] and in [5] was above 100 µM each time.
With `COC(=O)/C(=N\Nc1nnc(C)n1N)C(C#N)c1ccc(Cl)cc1` (stereo not given), the TGI in test [1], in test [2], in test [3], in test [4], in test [5] and in test [6] was above 100 µM throughout.
Take `CS/C(N)=N\NC(=O)CCC(=O)Nc1ccccc1C(F)(F)F`: the TGI was above 100 µM in [1]; above 100 µM in test [2]; above 100 µM in test [3]; above 58.5 µM in [4]; above 100 µM in [5].
Regarding `Cc1ccn2c(c1)nc1nc3ccccc3nc12`, the TGI in test [1], in test [2], in test [4], in [5] and in [6] was above 100 µM throughout.
Turning to `O=C(Cc1ccccc1)NN1C(=O)C(Cl)C1c1cc(Br)ccc1O` (stereo not given), the TGI was above 100 µM in test [1]; 8.77 µM in [2]; above 100 µM in test [3]; above 100 µM in [4]; above 100 µM in test [5]; above 100 µM in test [6].
Turning to `C[C@@H]1CC(=O)C2CCCC1C2=O` (stereo not given in full), the TGI in test [1], in test [2], in test [3], in test [4] and in test [5] was above 100 µM throughout.
Take `Cc1ccc(C2=C(c3ccccc3)C(Br)(c3ccc(C)cc3)C(c3ccccc3)=C2c2ccc(C)cc2)cc1`: the TGI in [1], in [2], in [3], in test [4], in test [5] and in test [6] was above 100 µM in each case.
In the case of `c1ccc(CNn2nnc3ccccc32)cc1`, the TGI in test [1], in test [2], in [4], in [5] and in test [6] was above 100 µM each time.
For the compound `COc1cc2c(cc1OC)C(CC(=O)NN=C(C)C)NCC2` (stereo not given), the TGI in test [1], in test [2], in test [3], in test [4], in test [5] and in test [6] was above 100 µM throughout.
